Patent US20220315554A1, “COMPOUNDS COMPRISING A […] LIGAND AND USE THEREOF” (priority 2019, published 2022)
Numbered stars: 1 amine (or outer) side, 2 acyl side, 3 side chain; on linkers, the order of the positions; unused ones are H or OH. Bridge positions count the residues as written; N and C are the ends. Square brackets hold non-standard residues; d marks the D form. Peptide text beside a SMILES is read from it. * marks the point of attachment. X22 = O=C1CN2CCN3CCN(CC(=O)N4CCN(Cc5cc(C[*:1])cc(C[*:2])c5)CC4)CCN(CC2)CC(=O)[O][Lu]([O]1)[O]C(=O)C3; TBMB(SCH2CH2NH-DOTA) = O=C(O)CN1CCN(CC(=O)O)CCN(CC(=O)NCCSCc2cc(C[*:1])cc(C[*:2])c2)CCN(CC(=O)O)CC1; X8 = O=C1CN2CCN3CCN(CC(=O)N4CCN(Cc5cc(C[*:1])cc(C[*:2])c5)CC4)CCN(CC2)CC(=O)[O][Ga]([O]1)[O]C(=O)C3; X13 = O=C(O)CN1CCN(CC(=O)O)CCN(CC(=O)NCCSCc2cc(CSCCN[*:2])cc(C[*:1])c2)CCN(CC(=O)O)CC1; Phe(2-CF3) = N[C@@H](Cc1ccccc1C(F)(F)F)C(=O)O; Hexanoyl = CCCCCC(=O)*; Sar = CNCC(=O)O

What was measured:
[1] = molecular target: T1, FAP-expressing human WI-38 fibroblasts (Homo sapiens, UniProt Q12884); test: Competitive FACS binding assay; settings: pIC50 Category (FACS), competition with 3 nM Cy5-labeled compound, 4° C., 1 hour
T1 construct: FAP-expressing human WI-38 fibroblasts (ECACC) were cultured in EMEM; host or cells: WI-38 human fibroblasts
T1 sequence (Q12884 1-760): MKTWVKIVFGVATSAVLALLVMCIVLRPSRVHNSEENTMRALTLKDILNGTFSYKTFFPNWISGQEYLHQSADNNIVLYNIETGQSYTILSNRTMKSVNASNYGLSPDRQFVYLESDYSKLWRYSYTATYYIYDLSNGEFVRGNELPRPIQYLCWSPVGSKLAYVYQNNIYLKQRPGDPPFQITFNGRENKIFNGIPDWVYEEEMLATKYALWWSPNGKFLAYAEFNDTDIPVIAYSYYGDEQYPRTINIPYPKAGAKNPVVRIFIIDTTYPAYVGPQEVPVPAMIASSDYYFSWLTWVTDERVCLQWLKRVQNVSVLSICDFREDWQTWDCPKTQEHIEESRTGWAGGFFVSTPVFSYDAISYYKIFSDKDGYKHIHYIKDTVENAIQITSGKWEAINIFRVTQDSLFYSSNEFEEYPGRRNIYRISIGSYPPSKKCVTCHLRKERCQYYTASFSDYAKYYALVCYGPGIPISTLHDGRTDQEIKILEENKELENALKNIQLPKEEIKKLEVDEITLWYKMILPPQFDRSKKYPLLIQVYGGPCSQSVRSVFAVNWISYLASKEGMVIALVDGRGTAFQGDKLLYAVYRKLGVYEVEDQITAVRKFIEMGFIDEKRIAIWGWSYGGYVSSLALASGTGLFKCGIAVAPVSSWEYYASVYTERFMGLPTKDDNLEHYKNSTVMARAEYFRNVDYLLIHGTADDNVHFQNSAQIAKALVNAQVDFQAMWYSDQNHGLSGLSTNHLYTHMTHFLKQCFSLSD
Method: Cells were analyzed in an Attune NxT flow cytometer. […]

Human recombinant FAP [2] = molecular target: T2, Human recombinant FAP (Homo sapiens, UniProt Q12884); test: Surface plasmon resonance (Biacore) assay; assay type: binding
T2 sequence (Q12884 1-760): T1 sequence (Q12884 1-760)

Human recombinant FAP [3] = molecular target: T2, Human recombinant FAP; test: FRET-based FAP protease activity assay; assay type: biochemical; design: purchased R&D systems 3715-SE; settings: pIC50 Category (Activity), FRET substrate, 37° C.

CCCCCC(=O)N[C@H]1CSCc2cc(cc(CN3CCN(C(=O)CN4CCN5CCN6CCN(CC4)CC(=O)[O][Lu]([O]C(=O)C6)[O]C(=O)C5)CC3)c2)CSC[C@@H](C(=O)N[C@@H](CC(=O)O)C(N)=O)NC(=O)[C@H](Cc2ccccc2)NC(=O)[C@H](CCC(N)=O)NC(=O)[C@H]([C@@H](C)O)NC(=O)[C@@H]2CCCN2C(=O)[C@@H]2CCCN2C1=O [3BP-3591, Lutetium-Complex of Hex-[Cys(tMeBn(DOTA-PP))-Pro-Pro-Thr-Gln-Phe-Cys]-Asp-NH2] (Hexanoyl-CPPTQFCD-NH2; linker 1-7 via X22)
< 10 nM: IC50 ([1]; WI-38 fibroblasts) | Kd (Human recombinant FAP [2]) | IC50 (Human recombinant FAP [3]; recombinant human FAP)

CCCCCC(=O)N[C@H]1CSCc2cc(cc(CN3CCN(C(=O)CN4CCN5CCN6CCN(CC4)CC(=O)[O][Ga]([O]C(=O)C6)[O]C(=O)C5)CC3)c2)CSC[C@@H](C(=O)N[C@@H](CC(=O)O)C(N)=O)NC(=O)[C@H](Cc2ccccc2)NC(=O)[C@H](CCC(N)=O)NC(=O)[C@H]([C@@H](C)O)NC(=O)[C@@H]2CCCN2C(=O)[C@@H]2CCCN2C1=O [3BP-3592, Gallium-Complex of Hex-[Cys(tMeBn(DOTA-PP))-Pro-Pro-Thr-Gln-Phe-Cys]-Asp-NH2] (Hexanoyl-CPPTQFCD-NH2; linker 1-7 via X8)
< 10 nM: IC50 ([1]; WI-38 fibroblasts) | Kd (Human recombinant FAP [2]) | IC50 (Human recombinant FAP [3]; recombinant human FAP)

CCCCCC(=O)N[C@H]1CSCc2cc(CSCCNC(=O)CN3CCN(CC(=O)O)CCN(CC(=O)O)CCN(CC(=O)O)CC3)cc(c2)CSC[C@@H](C(=O)O)NC(=O)[C@H](Cc2cccc3ccccc23)NC(=O)[C@H](CCC(N)=O)NC(=O)[C@H]([C@@H](C)O)NC(=O)[C@@H]2CCCN2C(=O)[C@@H]2CCCN2C1 [3BP-3650, Hex-[Cys(tMeBn(DOTA-AET))-Pro-Pro-Thr-Gln-1Ni-Cys]-OH]
< 10 nM: IC50 ([1]; WI-38 fibroblasts) | Kd (Human recombinant FAP [2]) | IC50 (Human recombinant FAP [3]; recombinant human FAP)

CCCCCC(=O)N[C@H]1CSCc2cc(CSCCNC(=O)CN3CCN(CC(=O)O)CCN(CC(=O)O)CCN(CC(=O)O)CC3)cc(c2)CSC[C@@H](C(=O)NCCC(=O)O)NC(=O)[C@H](Cc2ccccc2)NC(=O)[C@H](CCC(N)=O)NC(=O)[C@H]([C@@H](C)O)NC(=O)[C@@H]2CCCN2C(=O)[C@@H]2CCCN2C1=O [3BP-3651, Hex-[Cys(tMeBn(DOTA-AET))-Pro-Pro-Thr-Gln-Phe-Cys]-Bal-OH]
< 10 nM: IC50 ([1]; WI-38 fibroblasts) | Kd (Human recombinant FAP [2]) | IC50 (Human recombinant FAP [3]; recombinant human FAP)

CCCCCC(=O)N[C@H]1CSCc2cc(CSCCNC(=O)CN3CCN(CC(=O)O)CCN(CC(=O)O)CCN(CC(=O)O)CC3)cc(c2)CSCCNC(=O)[C@H](Cc2ccccc2)NC(=O)[C@H](CCC(N)=O)NC(=O)[C@H]([C@@H](C)O)NC(=O)[C@@H]2CCCN2C(=O)[C@@H]2CCCN2C1=O [3BP-3654, Hex-[Cys(tMeBn(DOTA-AET))-Pro-Pro-Thr-Gln-Phe-AET]] (Hexanoyl-CPPTQF; linker 1-C via X13)
< 10 nM: IC50 ([1]; WI-38 fibroblasts) | Kd (Human recombinant FAP [2]) | IC50 (Human recombinant FAP [3]; recombinant human FAP)

CCCCCC(=O)N[C@H]1CSCc2cc(CSCCNC(=O)CN3CCN(CC(=O)O)CCN(CC(=O)O)CCN(CC(=O)O)CC3)cc(c2)CSC[C@@H](C(=O)NCC(=O)O)NC(=O)[C@H](Cc2ccccc2)NC(=O)[C@H](CCC(N)=O)NC(=O)[C@H]([C@@H](C)O)NC(=O)[C@@H]2CCCN2C(=O)[C@@H]2CCCN2C1 [3BP-3656, Hex-[Cys(tMeBn(DOTA-AET))-Pro-Pro-Thr-Gln-Phe-Cys]-Gly-OH]
< 10 nM: IC50 ([1]; WI-38 fibroblasts) | Kd (Human recombinant FAP [2]) | IC50 (Human recombinant FAP [3]; recombinant human FAP)

CCCCCC(=O)N[C@H]1CSCc2cc(CSCCNC(=O)CN3CCN(CC(=O)O)CCN(CC(=O)O)CCN(CC(=O)O)CC3)cc(c2)CSC[C@@H](C(=O)NCCCC(=O)O)NC(=O)[C@H](Cc2ccccc2)NC(=O)[C@H](CCC(N)=O)NC(=O)[C@H]([C@@H](C)O)NC(=O)[C@@H]2CCCN2C(=O)[C@@H]2CCCN2C1 [3BP-3657, Hex-[Cys(tMeBn(DOTA-AET))-Pro-Pro-Thr-Gln-Phe-Cys]-Gab-OH]
< 10 nM: IC50 ([1]; WI-38 fibroblasts) | Kd (Human recombinant FAP [2]) | IC50 (Human recombinant FAP [3]; recombinant human FAP)

CCCCCC(=O)N[C@H]1CSCc2cc(CSCCNC(=O)CN3CCN(CC(=O)O)CCN(CC(=O)O)CCN(CC(=O)O)CC3)cc(c2)CSC[C@@H](C(=O)N[C@@H](CO)C(=O)O)NC(=O)[C@H](Cc2ccccc2)NC(=O)[C@H](CCC(N)=O)NC(=O)[C@H]([C@@H](C)O)NC(=O)[C@@H]2CCCN2C(=O)[C@@H]2CCCN2C1 [3BP-3658, Hex-[Cys(tMeBn(DOTA-AET))-Pro-Pro-Thr-Gln-Phe-Cys]-Ser-OH]
< 10 nM: IC50 [1] | Kd (Human recombinant FAP [2]) | IC50 (Human recombinant FAP [3])

CCCCCC(=O)N[C@H]1CSCc2cc(CSCCNC(=O)CN3CCN(CC(=O)O)CCN(CC(=O)O)CCN(CC(=O)O)CC3)cc(c2)CSC[C@@H](C(=O)N(C)CC(=O)O)NC(=O)[C@H](Cc2ccccc2)NC(=O)[C@H](CCC(N)=O)NC(=O)[C@H]([C@@H](C)O)NC(=O)[C@@H]2CCCN2C(=O)[C@@H]2CCCN2C1 [3BP-3659, Hex-[Cys(tMeBn(DOTA-AET))-Pro-Pro-Thr-Gln-Phe-Cys]-Nmg-OH]
< 10 nM: IC50 [1] | Kd (Human recombinant FAP [2]) | IC50 (Human recombinant FAP [3])

CCCCCC(=O)N[C@H]1CSCc2cc(CSCCNC(=O)CN3CCN(CC(=O)O)CCN(CC(=O)O)CCN(CC(=O)O)CC3)cc(c2)CSC[C@@H](C(=O)N[C@H](CC(=O)O)Cc2ccccc2)NC(=O)[C@H](Cc2ccccc2)NC(=O)[C@H](CCC(N)=O)NC(=O)[C@H]([C@@H](C)O)NC(=O)[C@@H]2CCCN2C(=O)[C@@H]2CCCN2C1 [3BP-3660, Hex-[Cys(tMeBn(DOTA-AET))-Pro-Pro-Thr-Gln-Phe-Cys]-Bhf-OH]
< 10 nM: IC50 [1] | Kd (Human recombinant FAP [2]) | IC50 (Human recombinant FAP [3])

CCCCCC(=O)N[C@H]1CSCc2cc(CSCCNC(=O)CN3CCN(CC(=O)O)CCN(CC(=O)O)CCN(CC(=O)O)CC3)cc(c2)CSC[C@@H](C(=O)N[C@@H](CC(=O)O)C(=O)O)NC(=O)[C@H](Cc2ccccc2)NC(=O)[C@H](CCC(N)=O)NC(=O)[C@H]([C@@H](C)O)NC(=O)[C@@H]2CCCN2C(=O)[C@@H]2CCCN2C1=O [3BP-3665, Hex-[Cys(tMeBn(DOTA-AET))-Pro-Pro-Thr-Gln-Phe-Cys]-Asp-OH] (Hexanoyl-CPPTQFCD-OH; linker 1-7 via TBMB(SCH2CH2NH-DOTA))
< 10 nM: IC50 [1] | Kd (Human recombinant FAP [2]) | IC50 (Human recombinant FAP [3])

CCCCCC(=O)N[C@H]1CSCc2cc(CSCCNC(=O)CN3CCN(CC(=O)O)CCN(CC(=O)O)CCN(CC(=O)O)CC3)cc(c2)CSC[C@@H](C(=O)O)NC(=O)[C@H](Cc2ccccc2)NC(=O)[C@H](CCC(N)=O)NC(=O)[C@H]([C@@H](C)O)NC(=O)[C@@H]2CCCN2C(=O)[C@@H]2CCCN2C1 [3BP-3678, Hex-[Cys(tMeBn(DOTA-AET))-Nmg-Pro-Thr-Gln-Phe-Cys]-OH]
< 10 nM: IC50 [1] | Kd (Human recombinant FAP [2]) | IC50 (Human recombinant FAP [3])

CCCCCC(=O)N[C@H]1CSCc2cc(CSCCNC(=O)CN3CCN(CC(=O)O)CCN(CC(=O)O)CCN(CC(=O)O)CC3)cc(c2)CSC[C@@H](C(=O)O)NC(=O)[C@H](Cc2ccccc2)NC(=O)[C@H](CCC(N)=O)NC(=O)[C@H]([C@@H](C)O)NC(=O)[C@@H]2C[C@@H](O)CN2C(=O)[C@@H]2CCCN2C1 [3BP-3679, Hex-[Cys(tMeBn(DOTA-AET))-Pro-Hyp-Thr-Gln-Phe-Cys]-OH]
< 10 nM: IC50 [1] | Kd (Human recombinant FAP [2]) | IC50 (Human recombinant FAP [3])

CCCCCC(=O)N[C@H]1CSCc2cc(CSCCNC(=O)CN3CCN(CC(=O)O)CCN(CC(=O)O)CCN(CC(=O)O)CC3)cc(c2)CSC[C@@H](C(=O)O)NC(=O)[C@H](Cc2ccccc2C(F)(F)F)NC(=O)[C@H](CCC(N)=O)NC(=O)[C@H]([C@@H](C)O)NC(=O)[C@@H]2CCCN2C(=O)CN(C)C1=O [3BP-3680, Hex-[Cys(tMeBn(DOTA-AET))-Pro-Pro-Thr-Gln-Otf-Cys]-OH] (Hexanoyl-C[Sar]PTQ[Phe(2-CF3)]C-OH; linker 1-7 via TBMB(SCH2CH2NH-DOTA))
< 10 nM: IC50 [1] | Kd (Human recombinant FAP [2]) | IC50 (Human recombinant FAP [3])

CCCCCS(=O)(=O)N[C@H]1CSCc2cc(CSCCNC(=O)CN3CCN(CC(=O)O)CCN(CC(=O)O)CCN(CC(=O)O)CC3)cc(c2)CSC[C@@H](C(=O)O)NC(=O)[C@H](Cc2ccccc2)NC(=O)[C@H](CCC(N)=O)NC(=O)[C@H]([C@@H](C)O)NC(=O)[C@@H]2CCCN2C(=O)[C@@H]2CCCN2C1=O [3BP-3690, Pentyl-SO2-[Cys(tMeBn(DOTA-AET))-Pro-Pro-Thr-Gln-Phe-Cys]-OH]
< 10 nM: IC50 [1] | Kd (Human recombinant FAP [2]) | IC50 (Human recombinant FAP [3])
